# Tests used:
# Test in all cases: Test C pre/postemergence
# Format in all cases: in vivo
# [1] = test system: Surinam grass (Brachiaria decumbens); details: for Plant response rating, Surinam Grass: Preemergence
# Procedure, shortened: (§1)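 Applications: preemergence onto seeded soil and postemergence onto 1- to 4-leaf seedlings, compound carried in non-phytotoxic solvent plus surfactant. Kept in greenhouse 12 to 14 days. Scored visually relative to untreated controls, 0 (no effect) to 100 (complete control).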
# [2] = test system: bermudagrass (Cynodon dactylon)
# Procedure, shortened: as §1
# [3] = test system: common (oilseed) sunflower (Helianthus annuus); details: Preemergence
# Procedure, shortened: as §1
# [4] = test system: crabgrass (Digitaria sanguinalis); details: for Plant response rating (scale of 0 to 100), Crabgrass / Crabgrass plant response rating: Postemergence; for Crabgrass plant response rating: scale 0 to 100 (0 no effect, 100 complete control); for Plant response rating, Crabgrass: Preemergence
# Procedure, shortened: as §1
# [5] = test system: giant foxtail (Setaria faberii); details: for Plant response rating (scale of 0 to 100), Foxtail, Giant / Foxtail, Giant plant response rating: Postemergence; for Foxtail, Giant plant response rating: scale 0 to 100 (0 no effect, 100 complete control); for Plant response rating, Foxtail, Giant: Preemergence
# Procedure, shortened: as §1
# [6] = test system: goosegrass (Eleusine indica); details: for Plant response rating (scale of 0 to 100), Goosegrass / Goosegrass plant response rating: Postemergence; for Goosegrass plant response rating: scale 0 to 100 (0 no effect, 100 complete control); for Plant response rating, Goosegrass: Preemergence
# Procedure, shortened: as §1
# [7] = test system: johnsongrass (Sorghum halepense); details: for Plant response rating, Johnsongrass: Preemergence
# Procedure, shortened: as §1
# kochia (Kochia scoparia) = details: for Plant response rating (scale of 0 to 100), Kochia / Kochia plant response rating: Postemergence; for Kochia plant response rating: scale 0 to 100 (0 no effect, 100 complete control); for Plant response rating, Kochia: Preemergence
# Procedure, shortened: as §1
# [8] = test system: morningglory (Ipomoea coccinea); details: for Morningglory plant response rating: scale 0 to 100 (0 no effect, 100 complete control); for Plant response rating, Morningglory: Preemergence
# Procedure, shortened: as §1
# [9] = test system: pigweed (Amaranthus retroflexus); details: for Plant response rating (scale of 0 to 100), Pigweed / Pigweed plant response rating: Postemergence; for Pigweed plant response rating: scale 0 to 100 (0 no effect, 100 complete control); for Plant response rating, Pigweed: Preemergence
# Procedure, shortened: as §1
# soybean (Glycine max) = details: for Plant response rating (scale of 0 to 100), Soybean / Soybean plant response rating: Postemergence; for Soybean plant response rating: scale 0 to 100 (0 no effect, 100 complete control); for Plant response rating, Soybean: Preemergence
# Procedure, shortened: as §1
# [10] = test system: woolly cupgrass (Eriochloa villosa); details: for Plant response rating (scale of 0 to 100), Cupgrass, Woolly / Cupgrass, Woolly plant response rating: Postemergence; for Cupgrass, Woolly plant response rating: scale 0 to 100 (0 no effect, 100 complete control); for Plant response rating, Cupgrass, Woolly: Preemergence
# Procedure, shortened: as §1
# [11] = Postemergence, 62 g ai/ha, scale 0 to 100 (0 no effect, 100 complete control)
# [12] = 16 g ai/ha, scale 0 to 100, 0 no effect, 100 complete control
# [13] = 62 g ai/ha, scale 0 to 100, 0 no effect, 100 complete control
# [14] = 31 g ai/ha, scale 0 to 100, 0 no effect, 100 complete control
smiles,measurement,setting,value
COC(=O)c1nc(C2CC2)nc(N=CN(C)C)c1Br [Compound 19],"Plant response rating (scale of 0 to 100), Surinam Grass","[1]; Postemergence, 16 g ai/ha",0
same,"Plant response rating (scale of 0 to 100), Surinam Grass","[1]; Postemergence, 31 g ai/ha",25
same,Surinam Grass plant response rating,[1]; [11],45
same,"Plant response rating, Surinam Grass",[1]; [12],0
same,"Plant response rating, Surinam Grass",[1]; [13],0
same,"Plant response rating, Surinam Grass","[1]; 125 g ai/ha, scale 0 to 100",10
same,"Plant response rating (scale of 0 to 100), Bermudagrass","[2]; Postemergence, 16 g ai/ha",0
same,"Plant response rating (scale of 0 to 100), Bermudagrass","[2]; Postemergence, 31 g ai/ha",5
same,Bermudagrass plant response rating,[2]; [11],30
same,"Plant response rating, Bermudagrass","[2]; Postemergence, 125 g ai/ha, scale 0 to 100",45
same,"Plant response rating, Bermudagrass","[2]; Preemergence, 16 g ai/ha, scale 0 to 100, 0 no effect, 100 complete control",0
same,"Plant response rating, Bermudagrass","[2]; Preemergence, 31 g ai/ha, scale 0 to 100, 0 no effect, 100 complete control",0
same,"Plant response rating, Bermudagrass","[2]; Preemergence, 62 g ai/ha, scale 0 to 100, 0 no effect, 100 complete control",0
same,"Plant response rating, Bermudagrass","[2]; Preemergence, 125 g ai/ha, scale 0 to 100",0
same,"Plant response rating, Sunflower",[3]; [12],10
same,"Plant response rating, Sunflower",[3]; [14],25
same,"Plant response rating, Sunflower",[3]; [13],70
same,"Plant response rating, Sunflower","[3]; 125 g ai/ha, scale 0 to 100",90
same,"Plant response rating (scale of 0 to 100), Crabgrass",[4]; 16 g ai/ha,20
same,"Plant response rating (scale of 0 to 100), Crabgrass",[4]; 31 g ai/ha,40
same,Crabgrass plant response rating,[4]; 62 g ai/ha,70
same,Crabgrass plant response rating,[4]; 125 g ai/ha,70
same,"Plant response rating, Crabgrass",[4]; [12],0
same,"Plant response rating, Crabgrass",[4]; [14],0
same,"Plant response rating, Crabgrass",[4]; [13],0
same,"Plant response rating, Crabgrass","[4]; 125 g ai/ha, scale 0 to 100",0
same,"Plant response rating (scale of 0 to 100), Foxtail, Giant",[5]; 16 g ai/ha,0
same,"Plant response rating (scale of 0 to 100), Foxtail, Giant",[5]; 31 g ai/ha,5
same,"Foxtail, Giant plant response rating",[5]; 62 g ai/ha,40
same,"Foxtail, Giant plant response rating",[5]; 125 g ai/ha,55
same,"Plant response rating, Foxtail, Giant",[5]; [12],0
same,"Plant response rating, Foxtail, Giant",[5]; [14],0
same,"Plant response rating, Foxtail, Giant",[5]; [13],0
same,"Plant response rating, Foxtail, Giant","[5]; 125 g ai/ha, scale 0 to 100",0
same,"Plant response rating (scale of 0 to 100), Goosegrass",[6]; 16 g ai/ha,0
same,"Plant response rating (scale of 0 to 100), Goosegrass",[6]; 31 g ai/ha,0
same,Goosegrass plant response rating,[6]; 62 g ai/ha,0
same,Goosegrass plant response rating,[6]; 125 g ai/ha,0
same,"Plant response rating, Goosegrass",[6]; [12],0
same,"Plant response rating, Goosegrass",[6]; [14],0
same,"Plant response rating, Goosegrass",[6]; [13],0
same,"Plant response rating, Goosegrass","[6]; 125 g ai/ha, scale 0 to 100",0
same,"Plant response rating (scale of 0 to 100), Johnsongrass","[7]; Postemergence, 16 g ai/ha",0
same,"Plant response rating (scale of 0 to 100), Johnsongrass","[7]; Postemergence, 31 g ai/ha",0
same,Johnsongrass plant response rating,[7]; [11],0
same,"Plant response rating, Johnsongrass",[7]; [12],0
same,"Plant response rating, Johnsongrass",[7]; [14],0
same,"Plant response rating, Johnsongrass",[7]; [13],35
same,"Plant response rating, Johnsongrass","[7]; 125 g ai/ha, scale 0 to 100",55
same,"Plant response rating (scale of 0 to 100), Kochia",kochia (Kochia scoparia); 16 g ai/ha,80
same,"Plant response rating (scale of 0 to 100), Kochia",kochia (Kochia scoparia); 31 g ai/ha,90
same,Kochia plant response rating,kochia (Kochia scoparia); 62 g ai/ha,90
same,Kochia plant response rating,kochia (Kochia scoparia); 125 g ai/ha,90
same,"Plant response rating, Kochia",kochia (Kochia scoparia); [12],35
same,"Plant response rating, Kochia",kochia (Kochia scoparia); [13],85
same,"Plant response rating, Kochia","kochia (Kochia scoparia); 125 g ai/ha, scale 0 to 100",90
same,"Plant response rating (scale of 0 to 100), Morningglory","[8]; Postemergence, 31 g ai/ha",55
same,Morningglory plant response rating,"[8]; Postemergence, 62 g ai/ha",80
same,Morningglory plant response rating,"[8]; Postemergence, 125 g ai/ha",85
same,"Plant response rating, Morningglory",[8]; [12],10
same,"Plant response rating, Morningglory",[8]; [14],10
same,"Plant response rating, Morningglory",[8]; [13],90
same,"Plant response rating, Morningglory","[8]; 125 g ai/ha, scale 0 to 100",90
same,"Plant response rating (scale of 0 to 100), Pigweed",[9]; 16 g ai/ha,50
same,"Plant response rating (scale of 0 to 100), Pigweed",[9]; 31 g ai/ha,50
same,Pigweed plant response rating,[9]; 62 g ai/ha,65
same,Pigweed plant response rating,[9]; 125 g ai/ha,65
same,"Plant response rating, Pigweed",[9]; [12],35
same,"Plant response rating, Pigweed",[9]; [14],45
same,"Plant response rating, Pigweed",[9]; [13],70
same,"Plant response rating, Pigweed","[9]; 125 g ai/ha, scale 0 to 100",95
same,"Plant response rating (scale of 0 to 100), Soybean",soybean (Glycine max); 16 g ai/ha,45
same,"Plant response rating (scale of 0 to 100), Soybean",soybean (Glycine max); 31 g ai/ha,55
same,Soybean plant response rating,soybean (Glycine max); 62 g ai/ha,75
same,Soybean plant response rating,soybean (Glycine max); 125 g ai/ha,75
same,"Plant response rating, Soybean",soybean (Glycine max); [12],0
same,"Plant response rating, Soybean",soybean (Glycine max); [14],25
same,"Plant response rating, Soybean",soybean (Glycine max); [13],85
same,"Plant response rating, Soybean","soybean (Glycine max); 125 g ai/ha, scale 0 to 100",90
same,"Plant response rating (scale of 0 to 100), Cupgrass, Woolly",[10]; 16 g ai/ha,0
same,"Plant response rating (scale of 0 to 100), Cupgrass, Woolly",[10]; 31 g ai/ha,25
same,"Cupgrass, Woolly plant response rating",[10]; 62 g ai/ha,65
same,"Cupgrass, Woolly plant response rating",[10]; 125 g ai/ha,65
same,"Plant response rating, Cupgrass, Woolly",[10]; [12],0
same,"Plant response rating, Cupgrass, Woolly",[10]; [14],0
same,"Plant response rating, Cupgrass, Woolly",[10]; [13],0
same,"Plant response rating, Cupgrass, Woolly","[10]; 125 g ai/ha, scale 0 to 100",0
